Measured values from patent US20230085307A1, “PYRIDAZINONE COMPOUND AND HERBICIDE” (NISSAN CHEMICAL CORPORATION, priority 2019, published 2023).

Key:
[1] = tested on: blackgrass; assay: Test Example 5: herbicidal effect by foliage application, plastic box (Table 20, symbol J); format: in vivo, blackgrass (Alopecurus myosuroides); details: 320 g/ha, evaluated three weeks after application
Outline: (§1)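 Sow seeds spot-wise in sterilized diluvial soil; cover with ~1.5 cm soil. Grow 14 days in greenhouse, 25° C. to 30° C. Spray foliage with emulsion diluted to predetermined amount. Rate effect after 3 weeks.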

[2] = tested on: chickweed; assay: Test Example 5: herbicidal effect by foliage application, plastic box (Table 20, symbol P); format: in vivo, common chickweed (Stellaria media); details: 320 g/ha, evaluated three weeks after application
Outline: as §1

[3] = tested on: blackgrass; assay: Test Example 4: herbicidal effect by soil treatment (Table 19, symbol J); format: in vivo, blackgrass (Alopecurus myosuroides); details: amount of applied herbicide 320 g/ha
Outline: (§2)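 Soil-surface application: an emulsion agent diluted with water to the predetermined dose is sprayed uniformly over seeds lying under roughly 1.5 cm of sterilized diluvial soil. Boxes stay in a greenhouse at 25° C. to 30° C. Three weeks later, each species is graded on previously defined criteria.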

[4] = tested on: barnyard grass; assay: Test Example 3: herbicidal effect by foliage application, Wagner pot (Table 18, symbol H); format: in vivo, barnyard grass (Echinochloa crus-galli)
Outline: (§3)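 Plants were sown in alluvial soil held under 0.1–0.5 cm standing water and grown 14 days in a greenhouse at 25–30 °C. An emulsifiable formulation, water-diluted to the set dose, was then sprayed onto the foliage, and effects were scored three weeks later using previously defined criteria.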

[5] = tested on: Chinese sprangletop; assay: Test Example 3: herbicidal effect by foliage application, Wagner pot (Table 18, symbol D); format: in vivo, chinese sprangletop (Leptochloa chinensis)
Outline: as §3

[6] = tested on: windgrass; assay: Test Example 4: herbicidal effect by soil treatment (Table 19, symbol L); format: in vivo, windgrass (Apera spica-venti); details: amount of applied herbicide 320 g/ha
Outline: as §2

[7] = tested on: barnyard grass; assay: Test Example 4: herbicidal effect by soil treatment (Table 19, symbol H); format: in vivo, barnyard grass (Echinochloa crus-galli); details: amount of applied herbicide 320 g/ha
Outline: as §2

[8] = tested on: barnyard grass; assay: Test Example 5: herbicidal effect by foliage application, plastic box (Table 20, symbol H); format: in vivo, barnyard grass (Echinochloa crus-galli); details: 320 g/ha, evaluated three weeks after application
Outline: as §1

[9] = tested on: persian speedwell; assay: Test Example 5: herbicidal effect by foliage application, plastic box (Table 20, symbol R); format: in vivo, Persian speedwell (Veronica persica); details: 320 g/ha, evaluated three weeks after application
Outline: as §1

[10] = tested on: velvetleaf; assay: Test Example 4: herbicidal effect by soil treatment (Table 19, symbol M); format: in vivo, velvetleaf (Abutilon theophrasti); details: amount of applied herbicide 320 g/ha
Outline: as §2

[11] = tested on: wild oat; assay: Test Example 4: herbicidal effect by soil treatment (Table 19, symbol I); format: in vivo, wild oat (Avena fatua); details: amount of applied herbicide 320 g/ha
Outline: as §2

[12] = tested on: wild oat; assay: Test Example 5: herbicidal effect by foliage application, plastic box (Table 20, symbol I); format: in vivo, wild oat (Avena fatua); details: 320 g/ha, evaluated three weeks after application
Outline: as §1

[13] = tested on: lambsquarters; assay: Test Example 5: herbicidal effect by foliage application, plastic box (Table 20, symbol O); format: in vivo, lambsquarters (Chenopodium album); details: 320 g/ha, evaluated three weeks after application
Outline: as §1

[14] = tested on: southern crabgrass; assay: Test Example 5: herbicidal effect by foliage application, plastic box (Table 20, symbol F); format: in vivo, southern crabgrass (Digitaria ciliaris); details: 320 g/ha, evaluated three weeks after application
Outline: as §1

[15] = tested on: green foxtail; assay: Test Example 4: herbicidal effect by soil treatment (Table 19, symbol G); format: in vivo, green foxtail (Setaria viridis); details: amount of applied herbicide 320 g/ha
Outline: as §2

[16] = tested on: Italian ryegrass; assay: Test Example 4: herbicidal effect by soil treatment (Table 19, symbol K); format: in vivo, Italian ryegrass (Lolium multiflorum); details: amount of applied herbicide 320 g/ha
Outline: as §2

[17] = tested on: lambsquarters; assay: Test Example 4: herbicidal effect by soil treatment (Table 19, symbol O); format: in vivo, lambsquarters (Chenopodium album); details: amount of applied herbicide 320 g/ha
Outline: as §2

[18] = tested on: southern crabgrass; assay: Test Example 4: herbicidal effect by soil treatment (Table 19, symbol F); format: in vivo, southern crabgrass (Digitaria ciliaris); details: amount of applied herbicide 320 g/ha
Outline: as §2

[19] = tested on: windgrass; assay: Test Example 5: herbicidal effect by foliage application, plastic box (Table 20, symbol L); format: in vivo, windgrass (Apera spica-venti); details: foliage application, 320 g/ha, evaluated three weeks after application
Outline: as §1

[20] = tested on: Italian ryegrass; assay: Test Example 5: herbicidal effect by foliage application, plastic box (Table 20, symbol K); format: in vivo, Italian ryegrass (Lolium multiflorum); details: 320 g/ha, evaluated three weeks after application
Outline: as §1

[21] = tested on: rice flat sedge; assay: Test Example 3: herbicidal effect by foliage application, Wagner pot (Table 18, symbol E); format: in vivo, rice flat sedge (Cyperus iria)
Outline: as §3

[22] = tested on: green foxtail; assay: Test Example 5: herbicidal effect by foliage application, plastic box (Table 20, symbol G); format: in vivo, green foxtail (Setaria viridis); details: 320 g/ha, evaluated three weeks after application
Outline: as §1

[23] = tested on: redroot pigweed; assay: Test Example 5: herbicidal effect by foliage application, plastic box (Table 20, symbol N); format: in vivo, redroot pigweed (Amaranthus retroflexus); details: 320 g/ha, evaluated three weeks after application
Outline: as §1

[24] = tested on: persian speedwell; assay: Test Example 4: herbicidal effect by soil treatment (Table 19, symbol R); format: in vivo, Persian speedwell (Veronica persica); details: amount of applied herbicide 320 g/ha
Outline: as §2

[25] = tested on: velvetleaf; assay: Test Example 5: herbicidal effect by foliage application, plastic box (Table 20, symbol M); format: in vivo, velvetleaf (Abutilon theophrasti); details: 320 g/ha, evaluated three weeks after application
Outline: as §1

[26] = tested on: chickweed; assay: Test Example 4: herbicidal effect by soil treatment (Table 19, symbol P); format: in vivo, common chickweed (Stellaria media); details: amount of applied herbicide 320 g/ha
Outline: as §2

[27] = tested on: redroot pigweed; assay: Test Example 4: herbicidal effect by soil treatment (Table 19, symbol N); format: in vivo, redroot pigweed (Amaranthus retroflexus); details: amount of applied herbicide 320 g/ha
Outline: as §2

[28] = amount of applied herbicide 320 g/ha
[29] = foliage application after 14-day growth

CCCC(=O)Oc1c(C)nn(C)c(=O)c1-c1c(-c2ccc(C#N)cc2)sc2ccc(C)cc12 [2-147]
herbicidal effect on J: blackgrass (criteria 0-5) ([1]; foliage application): 0 (Herbicidal rate of 5% or less (almost no effect))
herbicidal effect on P: chickweed (criteria 0-5) ([2]; foliage application): 5 (Herbicidal rate of 90% or more (almost completely withered))
J: blackgrass, herbicidal effect rating [3]: 0 (Herbicidal rate of 5% or less (almost no effect))
herbicidal effect on H: barnyard grass [4, 28]: 1 (Herbicidal rate of 5% or more and less than 20%)
herbicidal effect on D: Chinese sprangletop [5, 28]: 0 (Herbicidal rate of 5% or less (almost no effect))
L: windgrass, herbicidal effect rating [6]: 0 (Herbicidal rate of 5% or less (almost no effect))
H: barnyard grass, herbicidal effect rating [7]: 0 (Herbicidal rate of 5% or less (almost no effect))
herbicidal effect on H: barnyard grass (criteria 0-5) ([8]; foliage application): 0 (Herbicidal rate of 5% or less (almost no effect))
herbicidal effect on R: persian speedwell (criteria 0-5) ([9]; foliage application): 5 (Herbicidal rate of 90% or more (almost completely withered))
M: velvetleaf, herbicidal effect rating [10]: 0 (Herbicidal rate of 5% or less (almost no effect))
I: wild oat, herbicidal effect rating [11]: 0 (Herbicidal rate of 5% or less (almost no effect))
herbicidal effect on I: wild oat (criteria 0-5) ([12]; foliage application): 0 (Herbicidal rate of 5% or less (almost no effect))
herbicidal effect on O: lambsquarters (criteria 0-5) ([13]; foliage application): 3 (Herbicidal rate of 40% or more and less than 70%)
herbicidal effect on F: southern crabgrass (criteria 0-5) ([14]; foliage application): 0 (Herbicidal rate of 5% or less (almost no effect))
G: green foxtail, herbicidal effect rating [15]: 0 (Herbicidal rate of 5% or less (almost no effect))
K: Italian ryegrass, herbicidal effect rating [16]: 0 (Herbicidal rate of 5% or less (almost no effect))
O: lambsquarters, herbicidal effect rating [17]: 0 (Herbicidal rate of 5% or less (almost no effect))
F: southern crabgrass, herbicidal effect rating [18]: 0 (Herbicidal rate of 5% or less (almost no effect))
herbicidal effect on L: windgrass (criteria 0-5) [19]: 0 (Herbicidal rate of 5% or less (almost no effect))
herbicidal effect on K: Italian ryegrass (criteria 0-5) ([20]; foliage application): 0 (Herbicidal rate of 5% or less (almost no effect))
herbicidal effect on E: rice flat sedge [21, 28]: 5 (Herbicidal rate of 90% or more (almost completely withered))
herbicidal effect on G: green foxtail (criteria 0-5) ([22]; foliage application): 0 (Herbicidal rate of 5% or less (almost no effect))
herbicidal effect on N: redroot pigweed (criteria 0-5) ([23]; foliage application): 5 (Herbicidal rate of 90% or more (almost completely withered))
R: persian speedwell, herbicidal effect rating [24]: 5 (Herbicidal rate of 90% or more (almost completely withered))
herbicidal effect on M: velvetleaf (criteria 0-5) ([25]; foliage application): 4 (Herbicidal rate of 70% or more and less than 90%)
P: chickweed, herbicidal effect rating [26]: 4 (Herbicidal rate of 70% or more and less than 90%)

Cc1nn(C)c(=O)c(-c2c(-c3ccc(F)cc3)sc3c(F)cccc23)c1O [4-001]
herbicidal effect on J: blackgrass (evaluation grade 0-5) [1, 29]: 2 (Herbicidal rate of 20% or more and less than 40%)
herbicidal effect on P: chickweed (evaluation grade 0-5) [2, 29]: 5 (Herbicidal rate of 90% or more (almost completely withered))
Herbicidal effect by soil treatment, J: blackgrass [3]: 0 (Herbicidal rate of 5% or less (almost no effect))
herbicidal effect on barnyard grass (H) ([4]; 320 g/ha): 4 (Herbicidal rate of 70% or more and less than 90%)
herbicidal effect on Chinese sprangletop (D) ([5]; 320 g/ha): 3 (Herbicidal rate of 40% or more and less than 70%)
Herbicidal effect by soil treatment, L: windgrass [6]: 0 (Herbicidal rate of 5% or less (almost no effect))
Herbicidal effect by soil treatment, H: barnyard grass [7]: 0 (Herbicidal rate of 5% or less (almost no effect))
herbicidal effect on H: barnyard grass (evaluation grade 0-5) [8, 29]: 2 (Herbicidal rate of 20% or more and less than 40%)
herbicidal effect on R: persian speedwell (evaluation grade 0-5) [9, 29]: 5 (Herbicidal rate of 90% or more (almost completely withered))
Herbicidal effect by soil treatment, M: velvetleaf [10]: 3 (Herbicidal rate of 40% or more and less than 70%)
Herbicidal effect by soil treatment, I: wild oat [11]: 0 (Herbicidal rate of 5% or less (almost no effect))
herbicidal effect on I: wild oat (evaluation grade 0-5) [12, 29]: 0 (Herbicidal rate of 5% or less (almost no effect))
herbicidal effect on O: lambsquarters (evaluation grade 0-5) [13, 29]: 2 (Herbicidal rate of 20% or more and less than 40%)
herbicidal effect on F: southern crabgrass (evaluation grade 0-5) [14, 29]: 0 (Herbicidal rate of 5% or less (almost no effect))
Herbicidal effect by soil treatment, G: green foxtail [15]: 0 (Herbicidal rate of 5% or less (almost no effect))
Herbicidal effect by soil treatment, K: Italian ryegrass [16]: 0 (Herbicidal rate of 5% or less (almost no effect))
Herbicidal effect by soil treatment, O: lambsquarters [17]: 5 (Herbicidal rate of 90% or more (almost completely withered))
Herbicidal effect by soil treatment, F: southern crabgrass [18]: 0 (Herbicidal rate of 5% or less (almost no effect))
herbicidal effect on K: Italian ryegrass (evaluation grade 0-5) [20, 29]: 2 (Herbicidal rate of 20% or more and less than 40%)
herbicidal effect on rice flat sedge (E) ([21]; 320 g/ha): 5 (Herbicidal rate of 90% or more (almost completely withered))
herbicidal effect on G: green foxtail (evaluation grade 0-5) [22, 29]: 4 (Herbicidal rate of 70% or more and less than 90%)
herbicidal effect on N: redroot pigweed (evaluation grade 0-5) [23, 29]: 3 (Herbicidal rate of 40% or more and less than 70%)
Herbicidal effect by soil treatment, N: redroot pigweed [27]: 2 (Herbicidal rate of 20% or more and less than 40%)
Herbicidal effect by soil treatment, R: persian speedwell [24]: 4 (Herbicidal rate of 70% or more and less than 90%)
herbicidal effect on M: velvetleaf (evaluation grade 0-5) [25, 29]: 5 (Herbicidal rate of 90% or more (almost completely withered))
Herbicidal effect by soil treatment, P: chickweed [26]: 4 (Herbicidal rate of 70% or more and less than 90%)
